The results in this text go back to US7572797B2, “Amino substituted pyrazine derivatives for the treatment of pain” (Pfizer Inc., priority 2005, dated 2009).

Where two headings read alike, the source gives them in different places.

One assay addresses T1, Human Nav1.8 (Homo sapiens, UniProt Q9Y5Y9).
T1 construct: expressed in transfected cells
Description: VIPR assay for Nav1.8 (FRET membrane potential, deltamethrin as opener). The following applies: for IC50: HEK293 cells expressing human Nav1.8, average of replicates; for Selectivity Ratio: TTX-S IC50 / NaV1.8 IC50. Format: cell-based.

Assay [1] relates to tetrodotoxin-sensitive voltage-gated sodium channels including NaV1.2, NaV1.3 and NaV1.7 (SHSY-5Y cell line). Nature of the assay: TTX-S assay in SHSY-5Y cell line (VIPR procedure, veratridine as opener). As to conditions: read-out: TTX-S IC50, SHSY-5Y cells, veratridine 50 μM, average of replicates. Type of assay: cell-based.
[2] abbreviates: automated dissolution procedure.

T1 sequence (Q9Y5Y9 whole entry): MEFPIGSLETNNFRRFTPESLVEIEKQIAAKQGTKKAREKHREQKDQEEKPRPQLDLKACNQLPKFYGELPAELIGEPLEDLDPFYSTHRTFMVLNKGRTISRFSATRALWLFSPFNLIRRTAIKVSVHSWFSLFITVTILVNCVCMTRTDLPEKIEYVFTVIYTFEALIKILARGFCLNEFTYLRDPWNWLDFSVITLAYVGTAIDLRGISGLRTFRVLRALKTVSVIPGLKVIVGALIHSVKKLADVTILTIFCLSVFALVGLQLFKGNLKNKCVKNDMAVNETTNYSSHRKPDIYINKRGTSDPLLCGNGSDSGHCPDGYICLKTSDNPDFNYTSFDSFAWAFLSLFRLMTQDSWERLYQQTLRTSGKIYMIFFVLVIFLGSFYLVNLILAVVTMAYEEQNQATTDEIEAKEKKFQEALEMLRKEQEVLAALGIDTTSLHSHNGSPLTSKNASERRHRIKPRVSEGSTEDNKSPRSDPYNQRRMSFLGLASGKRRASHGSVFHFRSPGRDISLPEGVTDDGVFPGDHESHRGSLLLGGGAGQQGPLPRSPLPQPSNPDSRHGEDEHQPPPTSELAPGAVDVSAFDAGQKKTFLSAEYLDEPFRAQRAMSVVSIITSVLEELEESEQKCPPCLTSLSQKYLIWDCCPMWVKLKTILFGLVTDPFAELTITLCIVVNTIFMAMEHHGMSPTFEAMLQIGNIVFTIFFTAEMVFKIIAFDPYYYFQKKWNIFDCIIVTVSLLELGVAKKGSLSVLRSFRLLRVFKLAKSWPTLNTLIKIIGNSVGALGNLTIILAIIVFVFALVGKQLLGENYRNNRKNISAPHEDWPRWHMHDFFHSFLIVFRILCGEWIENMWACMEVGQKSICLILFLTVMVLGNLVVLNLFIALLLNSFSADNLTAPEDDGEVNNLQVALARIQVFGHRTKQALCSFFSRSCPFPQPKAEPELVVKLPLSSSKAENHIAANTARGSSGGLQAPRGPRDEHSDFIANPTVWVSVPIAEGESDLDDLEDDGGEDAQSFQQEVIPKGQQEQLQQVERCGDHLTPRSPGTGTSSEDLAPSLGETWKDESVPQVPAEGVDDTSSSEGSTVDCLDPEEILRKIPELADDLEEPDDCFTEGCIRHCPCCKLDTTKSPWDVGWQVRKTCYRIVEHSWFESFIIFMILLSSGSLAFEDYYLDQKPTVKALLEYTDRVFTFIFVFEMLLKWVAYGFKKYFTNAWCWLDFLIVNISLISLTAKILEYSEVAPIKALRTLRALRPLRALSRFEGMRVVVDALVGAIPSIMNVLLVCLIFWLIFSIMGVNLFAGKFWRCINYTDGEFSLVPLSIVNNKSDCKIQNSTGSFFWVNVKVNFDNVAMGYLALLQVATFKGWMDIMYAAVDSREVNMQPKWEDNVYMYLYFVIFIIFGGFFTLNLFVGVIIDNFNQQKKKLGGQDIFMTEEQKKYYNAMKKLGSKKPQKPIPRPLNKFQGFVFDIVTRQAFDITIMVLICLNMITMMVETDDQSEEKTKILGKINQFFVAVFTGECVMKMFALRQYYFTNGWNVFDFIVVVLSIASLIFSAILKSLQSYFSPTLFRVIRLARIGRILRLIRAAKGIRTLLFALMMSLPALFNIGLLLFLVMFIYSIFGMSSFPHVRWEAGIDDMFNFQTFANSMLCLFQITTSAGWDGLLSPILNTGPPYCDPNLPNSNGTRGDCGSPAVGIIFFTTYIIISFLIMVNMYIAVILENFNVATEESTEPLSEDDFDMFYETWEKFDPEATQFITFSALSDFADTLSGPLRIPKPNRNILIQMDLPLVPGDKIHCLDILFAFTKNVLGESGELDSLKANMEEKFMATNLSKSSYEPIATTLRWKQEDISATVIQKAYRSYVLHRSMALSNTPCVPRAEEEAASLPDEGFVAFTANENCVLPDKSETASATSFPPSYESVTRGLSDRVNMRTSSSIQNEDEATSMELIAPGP

For the compound `CCc1noc(C)c1C(=O)Nc1cnc(-c2cc(OC)ccc2Cl)c(N)n1` [Example 31, N-[6-amino-5-(2-chloro-5-methoxyphenyl)pyrazin-2-yl]-3-ethyl-5-methylisoxazole-4-carboxamide], on Human Nav1.8 (setting [2]), it took 5.38 µM to reach half-maximal inhibition (IC50) and the “Selectivity Ratio” value is >5.22. In addition, in assay [1] (setting [2]), the 50% inhibitory concentration (IC50) is > 28.1 µM.
For `COc1ccc(Cl)c(-c2ncc(NC(=O)c3cnoc3)nc2N)c1` [Example 33, N-[6-amino-5-(2-chloro-5-methoxyphenyl)pyrazin-2-yl]isoxazole-4-carboxamide], in that order: > 22.7 µM, “->1.33” and > 30.2 µM.
Regarding `Cc1nocc1C(=O)Nc1cnc(-c2cc(Cl)cc(Cl)c2Cl)c(N)n1` [Example 18, N-[6-amino-5-(2,3,5-trichlorophenyl)pyrazin-2-yl]-3-methylisoxazole-4-carboxamide], at Human Nav1.8 (manual dissolution procedure), it took 0.417 µM to reach half-maximal inhibition (IC50) and the “Selectivity Ratio” value was >72.0. Also, the IC50 in assay [1] (manual dissolution procedure) is > 30 µM.
As to `COc1cc(Cl)cc(-c2ncc(NC(=O)c3cnoc3)nc2N)c1Cl` [Example 48, N-[6-amino-5-(2,5-dichloro-3-methoxyphenyl)pyrazin-2-yl]isoxazole-4-carboxamide], the 50% inhibitory concentration (IC50) on Human Nav1.8 (setting [2]) was 8.06 µM; in assay [1] (setting [2]), > 30.2 µM. Further, the “Selectivity Ratio” value at Human Nav1.8 (setting [2]) is >3.75.
Consider `Cc1oncc1C(=O)Nc1cnc(-c2cc(Cl)cc3c2OCCO3)c(N)n1` [Example 39, N-[6-amino-5-(7-chloro-2,3-dihydro-1,4-benzodioxin-5-yl)pyrazin-2-yl]-5-methylisoxazole-4-carboxamide], for which the results for the IC50 (against Human Nav1.8 (setting [2]); in assay [1] (setting [2])) were 5.45 µM and > 17.7 µM, respectively. Moreover, the “Selectivity Ratio” value at Human Nav1.8 (setting [2]) was >3.25.
Regarding `COCCn1nccc1C(=O)Nc1cnc(-c2ccccc2Cl)c(N)n1` [Example 56, N-[6-amino-5-(2-chlorophenyl)pyrazin-2-yl]-1-(2-methoxyethyl)-1H-pyrazole-5-carboxamide], the IC50 on Human Nav1.8 (setting [2]) was > 26.7 µM; in assay [1] (setting [2]), > 30.2 µM.
In the case of `COCCn1nccc1C(=O)Nc1cnc(-c2cccc(Cl)c2Cl)c(N)n1` [Example 58, N-[6-amino-5-(2,3-dichlorophenyl)pyrazin-2-yl]-1-(2-methoxyethyl)-1H-pyrazole-5-carboxamide], at Human Nav1.8 (setting [2]), inhibition was half-maximal at 9.42 µM (IC50) and the “Selectivity Ratio” value is >3.21. Moreover, in assay [1] (setting [2]), the 50% inhibitory concentration (IC50) is > 30.2 µM.
With `COc1ccc(Cl)c(-c2ncc(NC(=O)c3conc3C)nc2N)c1` [Example 28, N-[6-amino-5-(2-chloro-5-methoxyphenyl)pyrazin-2-yl]-3-methylisoxazole-4-carboxamide], the IC50 on Human Nav1.8 (setting [2]) stood at 2.61 µM; in assay [1] (setting [2]), 25.6 µM. Moreover, the “Selectivity Ratio” value on Human Nav1.8 (setting [2]) was determined as 9.81.
Take `COc1cc(Cl)cc(-c2ncc(NC(=O)c3conc3C)nc2N)c1Cl` [Example 49, N-[6-Amino-5-(2,5-dichloro-3-methoxyphenyl)pyrazin-2-y]-3-methylisoxazole-4-carboxamide]: at Human Nav1.8 (setting [2]), the IC50 is 0.629 µM and the “Selectivity Ratio” value was >21.6. Moreover, the half-inhibitory concentration (IC50) in assay [1] (setting [2]) was > 13.6 µM.
With `COc1ccc(Cl)c(-c2ncc(NC(=O)c3nonc3C)nc2N)c1` [Example 29, N-[6-amino-5-(2-chloro-5-methoxyphenyl)pyrazin-2-yl]-4-methyl-1,2,5-oxadiazole-3-carboxamide], on Human Nav1.8 (setting [2]), the half-inhibitory concentration (IC50) amounted to 7.97 µM and the “Selectivity Ratio” value is reported as >3.69. For the same compound, the IC50 in assay [1] (setting [2]) was > 29.4 µM.
As for `Cc1nonc1C(=O)Nc1cnc(-c2cccc(Cl)c2Cl)c(N)n1` [Example 59, N-[6-amino-5-(2,3-dichlorophenyl)pyrazin-2-yl]-4-methyl-1,2,5-oxadiazole-3-carboxamide], the IC50 at Human Nav1.8 (setting [2]) was 7.23 µM; in assay [1] (setting [2]), > 25.9 µM. For the same compound, the “Selectivity Ratio” value at Human Nav1.8 (setting [2]) is recorded as >3.58.
For `COc1cc(Cl)cc(-c2ncc(NC(=O)c3ccnn3C)nc2N)c1Cl` [Example 6, N-[6-amino-5-(2,5-dichloro-3-methoxyphenyl)pyrazin-2-yl]-1-methyl-1H-pyrazole-5-carboxamide], in that order: 4.71 µM, > 20 µM and >4.25.
For the compound `Cc1nocc1C(=O)Nc1cnc(-c2cccc3ccccc23)c(N)n1` [Example 19, N-[6-amino-5-(1-naphthyl)pyrazin-2-yl]-3-methylisoxazole-4-carboxamide], the concentration for half-maximal inhibition (IC50) is 4.72 µM against Human Nav1.8 (manual dissolution procedure) and > 30 µM in assay [1] (manual dissolution procedure). Moreover, on Human Nav1.8 (manual dissolution procedure), the “Selectivity Ratio” value was >6.36.
As to `COc1cc(Cl)cc(-c2ncc(NC(=O)c3cnoc3C)nc2N)c1Cl` [Example 13, N-[6-amino-5-(2,5-dichloro-3-methoxyphenyl)pyrazin-2-yl]-5-methylisoxazole-4-carboxamide], the IC50 against Human Nav1.8 (setting [2]) was 10.4 µM; in assay [1] (setting [2]) it was > 25.8 µM. Also, the “Selectivity Ratio” value on Human Nav1.8 (setting [2]) is >2.48.
For `Cn1nccc1C(=O)Nc1cnc(-c2cccc(Cl)c2Cl)c(N)n1` [Example 5, N-[6-amino-5-(2,3-dichlorophenyl)pyrazin-2-yl]-1-methyl-1H-pyrazole-5-carboxamide], in that order: 6.14 µM, > 26.3 µM and “->4.28”.
For `COCCn1nccc1C(=O)Nc1cnc(-c2cc(OC)ccc2Cl)c(N)n1` [Example 34, N-[6-amino-5-(2-chloro-5-methoxyphenyl)pyrazin-2-yl]-1-(2-methoxyethyl)-1H-pyrazole-5-carboxamide], the IC50 against Human Nav1.8 (setting [2]) is 15.6 µM; in assay [1] (setting [2]) it was > 30.2 µM.
Regarding `Cn1nccc1C(=O)Nc1cnc(-c2cc(Cl)cc(Cl)c2Cl)c(N)n1` [Example 1, N-[6-Amino-5-(2,3,5-trichlorophenyl)pyrazin-2-yl]-1-methyl-1H-pyrazole-5-carboxamide], the IC50 at Human Nav1.8 (manual dissolution procedure) was 0.988 µM; in assay [1] (manual dissolution procedure), 11.2 µM. Besides, the “Selectivity Ratio” value at Human Nav1.8 (manual dissolution procedure) amounted to 11.4.
Regarding `Cc1nocc1C(=O)Nc1cnc(-c2cccc(Cl)c2Cl)c(N)n1` [Example 17, N-[6-amino-5-(2,3-dichlorophenyl)pyrazin-2-yl]-3-methylisoxazole-4-carboxamide], on Human Nav1.8 (setting [2]), 0.425 µM corresponded to half-maximal inhibition (IC50) and the “Selectivity Ratio” value is given as 29.4. The half-maximal inhibitory concentration (IC50) in assay [1] (setting [2]) came to 12.5 µM.
For `Cc1nocc1C(=O)Nc1cnc(-c2ccccc2Cl)c(N)n1` [Example 16, N-[6-amino-5-(2-chlorophenyl)pyrazin-2-yl]-3-methylisoxazole-4-carboxamide], in that order: 1.01 µM, >23.6 and > 24 µM.
In the case of `Nc1nc(NC(=O)c2ccon2)cnc1-c1cc(Cl)cc2c1OCCO2` [Example 43, N-[6-amino-5-(7-chloro-2,3-dihydro-1,4-benzodioxin-5-yl)pyrazin-2-yl]isoxazole-3-carboxamide], on Human Nav1.8 (setting [2]), the IC50 is > 21.1 µM and the “Selectivity Ratio” value is “->1.43”. Further, the IC50 in assay [1] (setting [2]) is > 30.1 µM.
The like results for `COc1cc(Cl)c(Cl)c(-c2ncc(NC(=O)c3ccnn3C)nc2N)c1` [Example 12, N-[6-Amino-5-(2,3-dichloro-5-methoxyphenyl)pyrazin-2-yl]-1-methyl-1H-pyrazole-5-carboxamide] were, in that order, 1.31 µM, 12.67 and 16.6 µM.
For `Cn1nccc1C(=O)Nc1cnc(-c2cc(F)ccc2Cl)c(N)n1` [Example 4, N-[6-amino-5-(2-chloro-5-fluorophenyl)pyrazin-2-yl]-1-methyl-1H-pyrazole-5-carboxamide], in that order: 8.73 µM, >3.46 and > 30.2 µM.
With `COc1ccc(Cl)c(-c2ncc(NC(=O)c3ccon3)nc2N)c1` [Example 37, N-[6-amino-5-(2-chloro-5-methoxyphenyl)pyrazin-2-yl]isoxazole-3-carboxamide], the IC50 was > 29.4 µM against Human Nav1.8 (setting [2]) and > 30.2 µM in assay [1] (setting [2]).

Usually IC50 stands for the concentration needed to halve the response being measured.
